Consider twelve compounds from patent US10688196B2, “Cross-linking agents of collagen fibers for the use in the treatment of corneal ectasia” (SOOFT ITALIA SPA, priority 2015, dated 2020).

For data set [1] the following is noted: riboflavin solutions, 40 W fluorescent light, 1350 foot-candles; cited from earlier work.
The subject of a further data set is bovine cornea. Particulars: compared to riboflavin in deionized water; cited from earlier work.
For data set [2] the following is noted: compared with solubility in water; cited from earlier work.
Data set [3] in a line: ROS (superoxide anion) production on 366 nm irradiation, measured by reduction of Nitro Blue Tetrazolium to Formazan Blue (absorbance at 560 nm). Particulars: at different light intensities. As for the experimental part:
The rational of the method is based on the fact that some organic molecules, both natural and synthetic, when irradiated with a particular wavelength, activate and, by interacting with oxygen, produce superoxide anion. […] As the amount of produced superoxide anion correlates with the amount of reduced NBT, from the absorption rate of reduced NBT is obtained the amount of ROS, thereby the ROS production can be expressed as function of irradiation time (minutes).
The ROS measurement is performed by a photoactivation chamber which enables to irradiate in controlled conditions the solutions of photoactivator and detector. The controlled parameters are emission specificity, uniform radiance, irradiation intensity, irradiation time.
Riboflavin-5′-(dihydrogen phosphate), monosodium salt, control sample, NBT control sample and reference sample were irradiated at different incident light intensity (99 μW/cm^2, 223 μW/cm^2, 633 μW/cm^2) (366 nm wavelength) in the photoactivation chamber, and absorbance at 560 nm is recorded. During the irradiation the temperature of the solutions was measured. […] Therefore reasonably the effect of temperature is marginal on these absorbance measures.
The two samples were irradiated in the photoactivation chamber by 99 μW/cm^2 incident light, and absorbance at 560 nm was recorded according to the above described procedure. […]

Another data set relates to cornea. Conditions: UVA irradiation at 370 nm, immediately after irradiation; cited from earlier work.
Data set [4] can be described thus: Riboflavin titer determination before and after sterilization (stability). Particulars: 1 atm, 121° C. Format: physicochemical. From the text:
Riboflavin Titer Determination

Regarding `O=S([O-])([O-])=S.[Na+].[Na+]` [sodium thiosulfate], in data set [1], the “stabilizing effect on riboflavin (photodegradation)” value (“stabilizing effect on riboflavin” for short) is given as 72.9%.
Consider ribonucleic acid, for which the “stabilizing effect on riboflavin” value in data set [1] is reported as 59.3%.
As for `OC[C@H]1O[C@@H]2O[C@H]3[C@H](O)[C@@H](O)[C@@H](O[C@H]4[C@H](O)[C@@H](O)[C@@H](O[C@H]5[C@H](O)[C@@H](O)[C@@H](O[C@H]6[C@H](O)[C@@H](O)[C@@H](O[C@H]7[C@H](O)[C@@H](O)[C@@H](O[C@H]8[C@H](O)[C@@H](O)[C@@H](O[C@H]1[C@H](O)[C@H]2O)O[C@@H]8CO)O[C@@H]7CO)O[C@@H]6CO)O[C@@H]5CO)O[C@@H]4CO)O[C@@H]3CO` [β-cyclodextrin], the “effect on riboflavin permeability (bovine cornea)” value (shortened to “effect on riboflavin permeability”) in the data set with bovine cornea is given as “enhances riboflavin permeability”. Also, the “effect on riboflavin aqueous solubility” value in data set [2] was “increased riboflavin solubility”.
For `NC(N)=S` [thiourea], in data set [1], the “stabilizing effect on riboflavin” value was 88.2%.
Consider `CSCCC(N)C(=O)O` (racemic) [DL-methionine], for which the “stabilizing effect on riboflavin” value in data set [1] is on record as 76.3%.
With 2-Hydroxypropyl-β-cyclodextrin, in the data set with bovine cornea, the “effect on riboflavin permeability” value is recorded as “no significant improvement in drug permeation”. The “effect on riboflavin aqueous solubility” value in data set [2] is recorded as “failed to enhance drug solubility at any significant level”.
On to `O=C([O-])CN(CCN(CC(=O)[O-])CC(=O)O)CC(=O)O.[Na+].[Na+]` [disodium ethylenediamine (EDTA)], for which the “stabilizing effect on riboflavin” value in data set [1] is 96.2%.
Turning to `OC[C@H]1O[C@@H]2O[C@H]3[C@H](O)[C@@H](O)[C@@H](O[C@H]4[C@H](O)[C@@H](O)[C@@H](O[C@H]5[C@H](O)[C@@H](O)[C@@H](O[C@H]6[C@H](O)[C@@H](O)[C@@H](O[C@H]7[C@H](O)[C@@H](O)[C@@H](O[C@H]1[C@H](O)[C@H]2O)O[C@@H]7CO)O[C@@H]6CO)O[C@@H]5CO)O[C@@H]4CO)O[C@@H]3CO` [α-cyclodextrin], the “effect on riboflavin permeability” value in the data set with bovine cornea is recorded as “no significant improvement in drug permeation”. For the same compound, the “effect on riboflavin aqueous solubility” value in data set [2] is reported as “increased riboflavin solubility”.
As for `N[C@@H](CCC(=O)N[C@@H](CS)C(=O)NCC(=O)O)C(=O)O` [reduced glutathione], in data set [1], the “stabilizing effect on riboflavin” value is reported as 26.2%.
Consider `OC[C@H]1O[C@@H]2O[C@H]3[C@H](O)[C@@H](O)[C@@H](O[C@H]4[C@H](O)[C@@H](O)[C@@H](O[C@H]5[C@H](O)[C@@H](O)[C@@H](O[C@H]6[C@H](O)[C@@H](O)[C@@H](O[C@H]7[C@H](O)[C@@H](O)[C@@H](O[C@H]8[C@H](O)[C@@H](O)[C@@H](O[C@H]9[C@H](O)[C@@H](O)[C@@H](O[C@H]1[C@H](O)[C@H]2O)O[C@@H]9CO)O[C@@H]8CO)O[C@@H]7CO)O[C@@H]6CO)O[C@@H]5CO)O[C@@H]4CO)O[C@@H]3CO` [γ-cyclodextrin], for which the “effect on riboflavin permeability” value with bovine cornea is recorded as “no significant improvement in drug permeation”. Moreover, the “effect on riboflavin aqueous solubility” value in data set [2] is reported as “failed to enhance drug solubility at any significant level”.
In the case of `COC(=O)c1ccc(O)cc1` [methylparaben], the “stabilizing effect on riboflavin” value in data set [1] was 86.4%.
Turning to `Cc1cc2nc3c(=O)[nH]c(=O)nc-3n(C[C@H](O)[C@H](O)[C@H](O)COP(=O)([O-])O)c2cc1C.[Na+]` [Riboflavin phosphate, Riboflavin-5-Phosphate Sodium], in data set [3], the “change of the absorption on irradiation” value was “no appreciable change of the absorption”. In addition, the “increase of the biomechanical rigidity of the cornea” value in the data set on cornea is given as “about 300%”. The “Riboflavin % by weight” value in data set [4] (in presence of EDTA H4 (0.1% p/p), Tris (0.05% p/p) and phosphate buffer, sterilization 20 min) was 67.0 % by weight; in data set [4] (in presence of EDTA H4 (0.1% p/p), Tris (0.05% p/p) and phosphate buffer, sterilization 30 min), 60.0 % by weight; in data set [4] (in presence of EDTA H4 (0.1% p/p), Tris (0.05% p/p) and phosphate buffer, sterilization 45 min) it was 50.0 % by weight; in data set [4] (in presence of borate buffer, sterilization 20 min), 68.0 % by weight; in data set [4] (in presence of distilled water, sterilization 20 min), 95.0 % by weight; in data set [4] (in presence of distilled water, sterilization 30 min) it was 92.0 % by weight. The “Riboflavin % by weight” value was 90.0 % by weight in data set [4] (in presence of distilled water, sterilization 45 min); 65.0 % by weight in data set [4] (in presence of phosphate buffer, sterilization 20 min); 40.0 % by weight in data set [4] (in presence of phosphate buffer, sterilization 30 min); 39.0 % by weight in data set [4] (in presence of phosphate buffer, sterilization 45 min).
